Laboratory results taken from US11135290B2, “Fucosyllactose as breast milk identical non-digestible oligosaccharide with new functional benefit” (N.V. Nutricia, priority 2009, dated 2021).
Marks after values point to notes of the source that are not given here.

Columns and labels:
Type in all cases: in vivo, C57BL/6 mice
DTH response = DTH response after Influvac vaccination; details: dietary supplementation, vaccinated mice; TH1-dependent parameter
Experimental: (§1) 6-8 Weeks old female C57BL/6 mice (Charles River) received semi-purified AIN-93G-based diets (Research Diet Service, Wijk bij Duurstede, the Netherlands), comprising
(§2) All groups were compared to the unsupplemented control diet. Dietary supplementation started 14 days before the first vaccination and lasted until the end of the experiment, 31 days after the first vaccination.
Vaccination experiments were performed using Influvac (Solvay Pharmaceuticals, Weesp, the Netherlands) from season 2005/2006. The mice received a primary vaccination and a booster vaccination, consisting of a subcutaneous (sc) injection of a 1:1 mix of vaccine and adjuvant in a total volume of 100 μl. The booster vaccination was given at 21 days after the primary vaccination. The experiments ended 10 days after booster vaccination. Blood samples were taken at the end of the experiment. […] The percentage of specific ^51Cr release was calculated as the percentage of specific lysis=(experimental release−spontaneous release)/(total detergent release−spontaneous release)×100. […]
(§3) Statistical analysis was performed using GraphPadPrism software. Statistical differences between test and control groups were analysed by ANOVA and post hoc Dunnett's test if multiple groups were compared to a single (control) group. […]

YAC-1 target cells = assay: NK cell cytotoxicity in spleen cell suspensions, 51Cr release assay; details: mouse splenocytes, dietary supplementation
Description: as §1
1) 2 wt % beta-galacto-oligosaccharide (GOS; source Vivinal GOS, Borculo Domo), fructo-oligosaccharide (FOS; source RaftilineHP, Orafti) and galacturonic acid oligosaccharide (Source AOS) in a 9:1:1.1 ratio. AOS are produced from pectin (Stidzucker AG, Mannheim, Germany), with a DP of 1-20. It consists of approximately 75% galacturonic acid oligomers, based on total weight;
2) 1 wt % lactoneotetraose (LNnT),
3) 1 wt % 3′-sialyl lactose (3′-SL), or
4) 1 wt % 2′-fucosyllactose (2′-FL).
as §2
Vaccination experiments were performed using Influvac (Solvay Pharmaceuticals, Weesp, the Netherlands) from season 2005/2006. […] The percentage of specific ^51Cr release was calculated as the percentage of specific lysis=(experimental release−spontaneous release)/(total detergent release−spontaneous release)×100. […]
as §3

[1] = tested on: regulatory T cells (Treg); assay: Percentage of regulatory T cells (Treg) by flow cytometry; details: dietary supplementation, vaccinated mice
Experimental: All groups were compared to the unsupplemented control diet. Dietary supplementation started 14 days before the first vaccination and lasted until the end of the experiment, 31 days after the first vaccination. […]
The percentage of regulatory T cells (Treg) was determined by flow cytometry (FACSCalibur) using allophycocyanin (APC-)labelled anti-mouse CD3 mAb, Pe-Cy5-labeled anti-mouse CD4 mAb and phycoerythrin (PE)-labelled anti-mouse CD25 mAb in combination with intracellular staining of fluorescein-isotiocyanate (FITC)-labelled Foxp3 mAb, according to the instructions offered by the manufactures (eBiosciences, San Diego, Calif.).

| Compound | DTH response compared with control-fed animals (DTH response) | NK cell activity, % lysis At E:T ratio 1:50 (YAC-1 target cells) | Treg percentage (s.e.m.) [1] |
| --- | --- | --- | --- |
| CC(=O)N[C@H]1[C@H]([C@H](O)[C@H](O)CO)O[C@@](O[C@H]2[C@@H](O)[C@@H](CO)O[C@@H](O[C@H]3[C@H](O)[C@@H](O)C(O)O[C@@H]3CO)[C@@H]2O)(C(=O)O)C[C@@H]1O (stereo partly drawn) [3′-SL, 3′-sialyl lactose] | significant increase | 1.93 % lysis | 2.8 (0.2)* percentage |
| lactoneotetraose [LNnT] | significant increase | 2.14 % lysis | 3.2 (0.2) percentage |
